Measured values published in patent US10745382B2 (BRISTOL-MYERS SQUIBB COMPANY, priority 2015, dated 2020).

Biological target: T1, PD-1/PD-L1 (Homo sapiens, UniProt Q9NZQ7)
T1 construct: made in house; host or cells: HEK293T
Assay: PD-1/PD-L1 Homogenous Time-Resolved Fluorescence (HTRF) binding assay
Conditions: PD-L1-His 10 nM, PD-1-Ig 20 nM; numeric IC50; read-out: Range or IC50
Outline: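 Detection by europium cryptate anti-Ig plus APC anti-His (1 nM and 20 nM final) with HTRF signal. Buffer was dPBS, 0.1% BSA, 0.05% Tween-20.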

T1 sequence (Q9NZQ7 with tags, fused parts or gaps): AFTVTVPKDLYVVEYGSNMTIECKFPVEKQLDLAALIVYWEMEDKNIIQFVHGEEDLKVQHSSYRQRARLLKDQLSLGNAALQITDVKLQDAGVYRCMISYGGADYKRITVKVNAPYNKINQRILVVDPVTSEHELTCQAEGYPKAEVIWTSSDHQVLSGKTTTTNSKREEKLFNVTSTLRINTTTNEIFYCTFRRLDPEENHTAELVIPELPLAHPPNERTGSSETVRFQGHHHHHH

IC50 [nM] | SMILES
87 | CNC(=O)c1cccc(-c2cccc(COc3cc(OCc4cc(F)cc(F)c4)c(CN4CCC[C@H]4C(=O)O)cc3Cl)c2C)c1C [Example 4024, (5-chloro-2-((3,5-difluorobenzyl)oxy)-4-((2,2′-dimethyl-3′-(methylcarbamoyl)-[1,1′-biphenyl]-3-yl)methoxy)benzyl)-L-proline]

Same assay, conditions: PD-L1-His 10 nM, PD-1-Ig 20 nM; value given as range class; read-out: Range or IC50

SMILES | IC50 [nM]
Cc1c(COc2cc(OCc3cncc(C#N)c3)c(CN[C@](C)(CO)C(=O)O)cc2Cl)cccc1-c1cccc(OCCCN2CCC(O)(C(=O)O)C2)c1C (stereo partly drawn) [Example 1054, 1-(3-((3′-((4-((((R)-2-carboxy-1-hydroxypropan-2-yl)amino)methyl)-2-chloro-5-((5-cyanopyridin-3-yl)methoxy)phenoxy)methyl)-2,2′-dimethyl-[1,1′-biphenyl]-3-yl)oxy)propyl)-3-hydroxypyrrolidine-3-carboxylic Acid] | 0.21 to 10
Cc1c(COc2cc(OCc3cncc(C#N)c3)c(CN[C@@](C)(CO)C(=O)O)cc2Cl)cccc1-c1cccc(OCCCN2CCC(CO)CC2)c1C [Example 2275, (S)-2-((5-chloro-2-((5-cyanopyridin-3-yl)methoxy)-4-((3′-(3-(4-(hydroxymethyl)piperidin-1-yl)propoxy)-2,2′-dimethyl-[1,1′-biphenyl]-3-yl)methoxy)benzyl)amino)-3-hydroxy-2-methylpropanoic Acid] | 0.21 to 10
Cc1c(COc2cc(OCc3cncc(C#N)c3)c(CN3CCCC[C@H]3C(=O)O)cc2Cl)cccc1-c1cccc(OCCCN(CCO)Cc2ccccc2)c1C [Example 2236, (2S)-1-(4-((3′-(3-(benzyl(2-hydroxyethyl)amino)propoxy)-2,2′-dimethylbiphenyl-3-yl)methoxy)-5-chloro-2-((5-cyanopyridin-3-yl)methoxy)benzyl)piperidine-2-carboxylic Acid] | 0.21 to 10
CCNC(=O)c1cccc(-c2cccc(COc3cc(OCc4cc(F)cc(F)c4)c(CN4CCC[C@H]4C(=O)O)cc3Cl)c2C)c1C [Example 4018, (5-chloro-2-((3,5-difluorobenzyl)oxy)-4-((3′-(ethylcarbamoyl)-2,2′-dimethyl-[1,1′-biphenyl]-3-yl)methoxy)benzyl)-L-proline] | 100 to 2000

Continued, values first:

IC50 [nM] | SMILES
0.21 to 10 | Cc1cc(OCCCN2CC[C@@H](O)C2)ccc1-c1cccc(COc2cc(OCc3cncc(C#N)c3)c(CN[C@H](CO)C(=O)O)cc2Cl)c1C [Example 1070, (R)-2-((5-chloro-2-((5-cyanopyridin-3-yl)methoxy)-4-((4′-(3-((R)-3-hydroxypyrrolidin-1-yl)propoxy)-2,2′-dimethyl-[1,1′-biphenyl]-3-yl)methoxy)benzyl)amino)-3-hydroxypropanoic Acid]
0.21 to 10 | Cc1c(COc2cc(OCc3cncc(C#N)c3)c(CN3CCCC[C@H]3C(=O)O)cc2Cl)cccc1-c1cccc(OCCCN2CCCCC2)c1C [Example 2213, (2S)-1-(5-chloro-2-((5-cyanopyridin-3-yl)methoxy)-4-((2,2′-dimethyl-3′-(3-(piperidin-1-yl)propoxy)biphenyl-3-yl)methoxy)benzyl)piperidine-2-carboxylic Acid]
0.21 to 10 | COc1cc(CCc2cccc(-c3cccc(OCCCN4CC[C@@H](O)C4)c3C)c2C)c(Cl)cc1CN1CCCC[C@H]1C(=O)O [Example 4518, (S)-1-(5-chloro-4-(2-(3′-(3-((R)-3-hydroxypyrrolidin-1-yl)propoxy)-2,2′-dimethyl-[1,1′-biphenyl]-3-yl)ethyl)-2-methoxybenzyl)piperidine-2-carboxylic Acid]
0.21 to 10 | Cc1c(COc2cc(OCc3cncc(C#N)c3)c(CN3CCCC[C@H]3C(=O)O)cc2Cl)cccc1-c1cccc(OCCCNC[C@H](O)C(=O)O)c1C [Example 2242, (2S)-1-(4-((3′-(3-((S)-2-carboxy-2-hydroxyethylamino)propoxy)-2,2′-dimethylbiphenyl-3-yl)methoxy)-5-chloro-2-((5-cyanopyridin-3-yl)methoxy)benzyl)piperidine-2-carboxylic Acid]
